Laboratory results: patent US20120237524A1, “MET INHIBITORS FOR ENHANCING RADIOTHERAPY EFFICACY” (priority 2011, published 2012)

Experiments:
MDA-MB-4355 spheroids = experiment: Branching morphogenesis assay; type: cell-based, human; settings: HGF 5 nM alone (suboptimal concentration), non-irradiated MDA-MB-4355
Experimental: a, Basement membrane invasion by irradiated MDA-MB-231 or U-251 (10 Gy; ctrl, control). Micrographs of transwell filters (10×). b, Aberrant Met-induced branching morphogenesis in irradiated MDA-MB-4355 (10 Gy; ctrl, control), cultured with or without (−) the indicated HGF concentrations. Scale bar: 100 μm.
MDA-MB-4355 spheroids were preformed by single-cell resuspension in 240 mg/ml methylcellulose (Sigma) and culture in nonadherent 96-well plates (Greiner) for 24 h. Spheroids were transferred into a matrix containing 1.3 mg/ml type I collagen from rat tail (BD Biosciences), 10% FBS, and 240 mg/ml methylcellulose. After 24 h, cells were irradiated and/or cultured in the presence of HGF for 7 days. HGF was obtained as a baculovirus recombinant protein in SF9 cells. The conditioned medium from uninfected cells was used as negative control. Images are representative of results obtained in three independent experiments.

Met = target: T1, Met (Homo sapiens, UniProt P08581); experiment: Met phosphorylation (immunoprecipitation, anti-phospho-Tyr western blot) in MDA-MB-231; type: cell-based; settings: MDA-MB-231, HGF 50 ng/ml (non-saturating)
T1 construct: Met phosphorylation in MDA-MB-231 treated with HGF (50 nM) and/or IR (10 Gy); endogenous in cells; host or cells: MDA-MB-231 (ATCC)
T1 sequence (P08581 25-1390): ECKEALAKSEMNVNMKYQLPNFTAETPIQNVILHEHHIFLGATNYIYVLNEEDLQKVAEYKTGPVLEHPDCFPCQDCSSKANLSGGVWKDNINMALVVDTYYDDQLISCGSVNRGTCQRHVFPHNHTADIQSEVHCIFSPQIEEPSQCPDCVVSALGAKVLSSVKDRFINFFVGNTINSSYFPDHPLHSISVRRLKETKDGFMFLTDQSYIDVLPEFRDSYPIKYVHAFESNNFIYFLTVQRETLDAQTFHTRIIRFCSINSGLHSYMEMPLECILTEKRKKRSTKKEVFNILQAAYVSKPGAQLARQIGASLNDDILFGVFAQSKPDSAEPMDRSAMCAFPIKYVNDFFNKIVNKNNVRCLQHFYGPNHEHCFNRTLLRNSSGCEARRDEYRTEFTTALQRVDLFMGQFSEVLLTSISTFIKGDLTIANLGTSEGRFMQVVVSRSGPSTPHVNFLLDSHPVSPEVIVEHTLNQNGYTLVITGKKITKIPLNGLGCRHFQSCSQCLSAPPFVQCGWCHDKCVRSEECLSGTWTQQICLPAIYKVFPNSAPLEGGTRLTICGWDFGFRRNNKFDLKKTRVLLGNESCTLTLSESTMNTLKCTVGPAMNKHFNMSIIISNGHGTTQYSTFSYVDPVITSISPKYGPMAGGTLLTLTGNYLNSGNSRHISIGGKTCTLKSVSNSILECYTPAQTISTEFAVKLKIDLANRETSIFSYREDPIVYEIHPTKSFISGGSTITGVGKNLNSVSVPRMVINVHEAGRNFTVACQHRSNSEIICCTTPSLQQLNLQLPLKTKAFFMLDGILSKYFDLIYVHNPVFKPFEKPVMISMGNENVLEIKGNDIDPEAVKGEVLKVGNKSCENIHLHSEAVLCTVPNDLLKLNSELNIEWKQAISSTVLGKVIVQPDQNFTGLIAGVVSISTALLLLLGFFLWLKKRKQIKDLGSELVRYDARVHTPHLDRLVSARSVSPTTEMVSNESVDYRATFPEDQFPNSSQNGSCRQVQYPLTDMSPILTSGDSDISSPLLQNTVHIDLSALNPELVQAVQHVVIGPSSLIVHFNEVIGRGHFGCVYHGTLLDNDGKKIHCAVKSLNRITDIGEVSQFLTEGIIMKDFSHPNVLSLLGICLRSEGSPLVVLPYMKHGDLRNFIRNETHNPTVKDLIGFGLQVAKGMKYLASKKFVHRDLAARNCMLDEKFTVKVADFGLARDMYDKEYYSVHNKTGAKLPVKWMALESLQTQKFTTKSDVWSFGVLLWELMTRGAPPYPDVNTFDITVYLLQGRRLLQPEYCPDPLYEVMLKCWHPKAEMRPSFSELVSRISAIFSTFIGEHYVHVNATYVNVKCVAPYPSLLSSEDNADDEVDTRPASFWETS

ATM kinase = target: T2, ATM kinase (Homo sapiens, UniProt Q13315); experiment: ATM kinase inhibition in irradiated cells, western blot time course; type: cell-based; settings: MDA-MB-435S or MDA-MB-231, 10 μM, time course after irradiation
T2 construct: endogenous in cells; host or cells: MDA-MB-435S, MDA-MB-231 (ATCC)
T2 sequence (Q13315 whole entry): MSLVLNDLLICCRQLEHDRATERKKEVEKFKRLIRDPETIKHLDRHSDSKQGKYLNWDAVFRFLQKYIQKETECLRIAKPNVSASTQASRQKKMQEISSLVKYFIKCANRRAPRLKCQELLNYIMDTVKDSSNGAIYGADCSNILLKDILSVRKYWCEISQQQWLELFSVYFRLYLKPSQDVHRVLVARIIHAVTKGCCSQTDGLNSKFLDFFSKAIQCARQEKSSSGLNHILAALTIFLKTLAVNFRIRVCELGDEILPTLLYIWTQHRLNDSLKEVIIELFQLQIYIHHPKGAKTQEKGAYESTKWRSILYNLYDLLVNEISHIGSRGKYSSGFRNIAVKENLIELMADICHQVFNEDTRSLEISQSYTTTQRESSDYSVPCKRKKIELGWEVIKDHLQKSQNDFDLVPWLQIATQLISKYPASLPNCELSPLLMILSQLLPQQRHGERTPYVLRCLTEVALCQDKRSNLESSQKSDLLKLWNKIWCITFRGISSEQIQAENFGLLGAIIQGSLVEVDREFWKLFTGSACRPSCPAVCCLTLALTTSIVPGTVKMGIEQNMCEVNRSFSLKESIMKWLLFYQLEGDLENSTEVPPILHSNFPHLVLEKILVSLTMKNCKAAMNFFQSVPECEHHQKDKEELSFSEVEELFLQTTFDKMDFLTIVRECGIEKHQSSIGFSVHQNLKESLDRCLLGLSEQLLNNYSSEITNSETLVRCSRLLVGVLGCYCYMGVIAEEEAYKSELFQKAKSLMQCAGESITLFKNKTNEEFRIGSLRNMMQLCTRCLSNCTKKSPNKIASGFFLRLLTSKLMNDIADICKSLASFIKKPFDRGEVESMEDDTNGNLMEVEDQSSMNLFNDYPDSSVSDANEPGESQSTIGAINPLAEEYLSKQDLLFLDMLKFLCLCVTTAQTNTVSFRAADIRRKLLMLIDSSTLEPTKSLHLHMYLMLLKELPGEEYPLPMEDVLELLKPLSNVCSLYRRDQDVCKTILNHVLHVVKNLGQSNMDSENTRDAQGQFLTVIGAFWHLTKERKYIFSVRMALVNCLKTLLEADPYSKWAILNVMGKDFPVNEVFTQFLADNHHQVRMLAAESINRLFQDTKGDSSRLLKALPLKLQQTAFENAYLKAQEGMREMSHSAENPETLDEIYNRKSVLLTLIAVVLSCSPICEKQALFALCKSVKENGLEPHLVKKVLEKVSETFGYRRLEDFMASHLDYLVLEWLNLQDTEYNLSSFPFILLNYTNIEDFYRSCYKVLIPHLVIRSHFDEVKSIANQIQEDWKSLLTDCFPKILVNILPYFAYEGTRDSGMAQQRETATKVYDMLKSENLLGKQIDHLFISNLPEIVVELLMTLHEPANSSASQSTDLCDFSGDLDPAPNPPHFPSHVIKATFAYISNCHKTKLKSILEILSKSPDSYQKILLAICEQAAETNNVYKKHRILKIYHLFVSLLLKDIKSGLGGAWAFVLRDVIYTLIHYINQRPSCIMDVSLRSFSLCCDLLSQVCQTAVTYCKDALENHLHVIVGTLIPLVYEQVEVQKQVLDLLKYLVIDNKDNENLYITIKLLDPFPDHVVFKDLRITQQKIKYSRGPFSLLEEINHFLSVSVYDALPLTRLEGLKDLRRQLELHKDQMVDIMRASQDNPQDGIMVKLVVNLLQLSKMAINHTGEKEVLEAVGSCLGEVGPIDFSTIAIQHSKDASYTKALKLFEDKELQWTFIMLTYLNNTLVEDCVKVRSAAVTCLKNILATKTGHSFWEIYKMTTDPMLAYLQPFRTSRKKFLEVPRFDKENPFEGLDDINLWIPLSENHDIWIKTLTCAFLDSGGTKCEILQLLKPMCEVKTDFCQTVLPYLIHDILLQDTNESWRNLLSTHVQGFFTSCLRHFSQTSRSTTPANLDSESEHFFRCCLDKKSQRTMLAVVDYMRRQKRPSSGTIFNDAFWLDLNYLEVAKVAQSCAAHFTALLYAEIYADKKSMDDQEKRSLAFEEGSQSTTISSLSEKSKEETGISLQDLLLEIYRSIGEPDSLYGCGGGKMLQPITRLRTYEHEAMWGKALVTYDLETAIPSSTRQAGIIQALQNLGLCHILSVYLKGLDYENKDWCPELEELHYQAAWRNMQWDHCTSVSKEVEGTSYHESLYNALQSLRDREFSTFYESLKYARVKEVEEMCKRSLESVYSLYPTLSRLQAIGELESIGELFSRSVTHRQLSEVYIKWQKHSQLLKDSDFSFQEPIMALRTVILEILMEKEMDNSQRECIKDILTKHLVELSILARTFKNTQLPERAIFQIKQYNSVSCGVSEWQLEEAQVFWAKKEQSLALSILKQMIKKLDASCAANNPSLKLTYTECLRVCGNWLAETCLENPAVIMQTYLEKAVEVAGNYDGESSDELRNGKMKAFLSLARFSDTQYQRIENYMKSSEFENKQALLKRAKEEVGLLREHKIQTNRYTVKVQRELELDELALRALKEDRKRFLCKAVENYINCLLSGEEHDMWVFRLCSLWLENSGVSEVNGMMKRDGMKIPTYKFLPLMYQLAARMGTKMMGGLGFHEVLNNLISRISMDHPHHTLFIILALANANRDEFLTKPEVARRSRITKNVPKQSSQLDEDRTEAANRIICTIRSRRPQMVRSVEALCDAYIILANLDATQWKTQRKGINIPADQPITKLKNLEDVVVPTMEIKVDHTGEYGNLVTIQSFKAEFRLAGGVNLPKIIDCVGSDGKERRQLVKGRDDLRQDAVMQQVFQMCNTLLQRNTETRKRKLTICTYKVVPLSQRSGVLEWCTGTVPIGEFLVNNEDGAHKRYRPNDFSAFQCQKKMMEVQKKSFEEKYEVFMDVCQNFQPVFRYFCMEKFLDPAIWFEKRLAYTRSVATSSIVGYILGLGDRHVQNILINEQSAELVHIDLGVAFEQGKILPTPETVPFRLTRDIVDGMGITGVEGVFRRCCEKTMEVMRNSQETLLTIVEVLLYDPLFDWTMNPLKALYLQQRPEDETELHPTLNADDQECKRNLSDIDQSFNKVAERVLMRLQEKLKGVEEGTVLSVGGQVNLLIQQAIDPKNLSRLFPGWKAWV
Experimental: Met protein expression, Chk2 phosphorylation (p-Chk2) and p65/RelA nuclear translocation in MDA-MB-435S treated with the ATM kinase inhibitor CGK733, and extracted at the indicated time-points after irradiation. ctrl, non-irradiated cells at time zero.
Cell lines (A549, MDA-MB-231, LoVo, MDAMB-4355, U-87MG, U-251, PC3, SF295, DLD1, SK-N-SH) were from ATCC. For ATM kinase inhibition, cells were pre-treated for 4 h before irradiation and then kept in the presence of CGK733 (10 μM in DMSO). siRNAs targeting RELA (ON-TARGET plus SMART pool L-003533-00 Human RELA, NM 021975, Dharmacon, 100 nM), or control siRNAs (ON-TARGET plus SMART pool, siCONTROL Non Targeting siRNA, Dharmacon) were transiently transfected.
Protein expression was investigated in irradiated confluent, serum-starved cells. For fractionation in cytoplasmic and nuclear portions, cells were washed and incubated on ice for 10 min in “buffer A” (10 mM HEPES pH 7.9, 10 mM KCl, 0.1 mM EDTA, 0.5% NP-40, 1 mM dithiothreitol, 1 mM phenylmethylsulfonyl fluoride and a cocktail of protease inhibitors). Supernatants, containing the cytoplasmic extracts, were separated by centrifugation. Pellets were resuspended in “buffer B” (20 mM HEPES pH 7.9, 400 mM KCl, 1 mM EDTA, 1 mM dithiothreitol, 10% glycerol, 1 mM phenylmethylsulfonyl fluoride and a cocktail of protease inhibitors) and incubated at 4° C. for 1 h with vigorous mixing. The resulting nuclear lysates were clarified by high-speed centrifugation. Equal amount of proteins were resolved by SDS-PAGE and analysed by western blot with the following primary antibodies: mouse anti-human Met (DL21 disclosed in Prat et al., Int. J. Cancer 49, 323-328 (1991)), mouse anti-p65/RelA and mouse anti-HIF-1α (BD Biosciences), rabbit anti-phospho-Ser276 and rabbit anticaspase-3 (Cell Signaling), rabbit anti-phospho-Chk2 (T68, R&D Systems). Goat anti-actin (C-11; Santa Cruz Biotechnology) and mouse anti-lamin B (Calbiochem) were used for control of equal cytoplasmic or nuclear protein loading, respectively. […] Densitometric analysis was performed with Quantity One 1-D (Bio-Rad Laboratories). […]

U-251 = experiment: Cell viability assay with DN30 Fab, with irradiation (10 Gy); type: cell-based, human
Experimental: Viability of U-251 irradiated with 10 Gy and/or cultured in the presence of the Fab fragment of the DN30 anti-Met antibody, for 48 h (vehicle: non-irradiated cells). Columns: mean of triplicate analyses of three independent experiments±s.e.m. […] Columns: percentage of cells generating clones (mean of triplicate analyses of two independent experiments±s.e.m., * p<0.05, n=6, paired t-test).
10^3 cells were seeded in 96-well plates and grown for 24 h. Culture medium was replaced with medium containing 1% FBS and DN30 Fab (28 μg/ml) or the vehicle alone (PBS). After 24 h, cells were irradiated (10 Gy). Cell viability was assessed as above.

HGF: Hepatocyte Growth Factor, Met ligand, obtained as a baculovirus recombinant protein in SF9 cells
induction of branching morphogenesis (MDA-MB-4355 spheroids): incapable of inducing branching morphogenesis | time to peak of Met phosphorylation (Met): 30 min

O=C(NC(NC(=S)Nc1ccc(F)c([N+](=O)[O-])c1)C(Cl)(Cl)Cl)C(c1ccccc1)c1ccccc1 (stereo not shown) [CGK733]
IR-induced Met protein overexpression (ATM kinase): prevented | IR-induced p65/RelA nuclear translocation (ATM kinase): prevented | IR-induced phosphorylation of the specific ATM substrate Chk2 (ATM kinase): prevented

B1: Fab fragment of the DN30 anti-Met antibody: Fab fragment obtained through DN30 papain digestion and affinity purification; induces MET down-regulation (antibody)
heavy: QVQLQQPGTELVKPGASVKLSCKASGYTFTSYWIHWVKQRPGQGLEWIGEINPSSGRTNYNEKFKNKVTVTVDKSSTTAYMQLSNLTSEDSAVYYCASRGYWGQGTTLTVSSAKTTAPSVYPLAPVCGNTTGSSVTLGCLVKGYFPEPVTLTWNSGSLSSGVHTFPAVLQSDLYTLSSSVTVTSSTWPSQSITCNVAHPASSTKVDKKIEPRGPTIKPCPPCKCPAPNLLGGPSVFIFPPKIKDVLMISLSPIVTCVVVDVSEDDPDVQISWFVNNVEVHTAQTQTHREDYNSTLRVVSALPIQHQDWMSGKEFKCKVNNKDLPAPIERTISKPKGSVRAPQVYVLPPPEEEMTKKQVTLTCMVTDFMPEDIYVEWTNNGKTELNYKNTEPVLDSDGSYFMYSKLRVEKKNWVERNSYSCSVVHEGLHNHHTTKSFSRTPGK
light: DIVLTQSPASLAVSLGQRATISCKASQSVDYDGGSYMSWFQQRPGQPPKLLISAASNLESGIPARFSGSGSGTDFTLNIHPVEEEDVATYYCQQSYEDPLTFGAGTKLELKRADAAPTVSIFPPSSEQLTSGGASVVCFLNNFYPKDINVKWKIDGSERQNGVLNSWTDQDSKDSTYSMSSTLTLTKDEYERHNSYTCEATHKTSTSPIVKSFNRNEC
Viability of U-251 (combination vs single treatments) (U-251; U-251 irradiated with 10 Gy and cultured with DN30 Fab for 48 h, p<0.05, n=9): viability significantly reduced with respect to either Fab-DN30 or 10 Gy alone | cell viability decrease (U-251; irradiated cells kept in the presence of DN30 Fab (28 μg/ml), 10 Gy): up to 75%
